The record followed here is patent US11918624B2, “Therapeutic composition for use in the treatment of COVID-19 and other cytokine storm associated disorders” (priority 2020, dated 2024).

One series deals with guinea pig complement. The experiment in a line: antibody dependent complement mediated hemolysis assay. The following applies: 1 ug/mL peptide added to guinea pig complement, titrated against turkey erythrocytes with hemolysin. The format is biochemical. How it is done:
The peptides were synthesized by Fmoc solid phase method, purified on C18 reversa phase chromatography, tested by adding each peptide to and screened for complement inhibitory activity, in a simple antibody dependent hemolysis system in which 1 ug/mL of peptides were added to guinea pig complement, and were titrated against turkey erythrocytes mixed with hemolysin, a complement fixing anti-erythrocyte antibody solution. In the presence the peptides, the hemolythic activity of the complement was reduced, and the corresponding dilutions was determined. The inhibition was estimated by a formula: Inhibition (%)=100−(dilution of sample titer*100)/dilution of control

For another series, the target named is T1, endothelin receptor (Canis lupus familiaris, UniProt Q5KSU9).
T1 construct: from tissue; host or cells: whole animal (dog), in vivo
T1 sequence (Q5KSU9 21-426): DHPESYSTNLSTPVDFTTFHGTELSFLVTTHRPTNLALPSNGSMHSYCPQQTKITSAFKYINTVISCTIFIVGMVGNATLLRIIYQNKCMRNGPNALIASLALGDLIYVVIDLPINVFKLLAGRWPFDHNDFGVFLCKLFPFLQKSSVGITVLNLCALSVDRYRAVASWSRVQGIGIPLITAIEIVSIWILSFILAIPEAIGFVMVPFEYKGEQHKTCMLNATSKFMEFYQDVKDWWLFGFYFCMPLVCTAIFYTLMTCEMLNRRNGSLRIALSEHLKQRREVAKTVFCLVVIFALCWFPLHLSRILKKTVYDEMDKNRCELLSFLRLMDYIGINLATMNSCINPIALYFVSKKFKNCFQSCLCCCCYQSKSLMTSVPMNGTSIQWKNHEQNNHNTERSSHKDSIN
The experiment in a line: iv ET-1 injection in dogs pretreated with peptide. The format is in vivo. How it is done: One of the peptides was subsequently tested in dogs and confirmed its biological effect in vivo. […] The elevated ET-1 level was marked with profound changes in circulation (details to be published elsewhere). However, pretreatment of dogs with 100 ug/kg ETR-P1/fl peptide removed the cardiovascular effects of injected ET-1 peptide from the circulation within 10 min and the measured endothelin level become normal. […] It is known in the previous art and has been patented and the patent expired.

A further series addresses T2, C5a receptor (Homo sapiens, UniProt P21730).
T2 construct: U937 cells bearing the C5a receptor were preincubated with this peptide; endogenous in cells; host or cells: U937 cells, cAMP stimulated
T2 sequence (P21730 1-350): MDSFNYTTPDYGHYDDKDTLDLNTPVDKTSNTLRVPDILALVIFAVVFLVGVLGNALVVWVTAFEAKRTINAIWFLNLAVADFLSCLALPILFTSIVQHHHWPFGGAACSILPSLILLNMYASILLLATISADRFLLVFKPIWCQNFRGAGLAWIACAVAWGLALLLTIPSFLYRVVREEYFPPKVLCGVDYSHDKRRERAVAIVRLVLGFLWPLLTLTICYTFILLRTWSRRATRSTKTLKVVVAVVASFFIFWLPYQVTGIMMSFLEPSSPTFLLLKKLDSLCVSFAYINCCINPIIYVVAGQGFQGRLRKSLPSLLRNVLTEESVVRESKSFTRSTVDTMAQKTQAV
The experiment in a line: C5a-induced Ca++ influx in C5a receptor-expressing U937 cells. The format is cell-based. How it is done:
It was shown by its ability to inhibit Ca^++ influx induced by C5a anaphylatoxin in C5a receptor-expressing (cAMP stimulated) U937 cells.
(§1) Particularly, it is shown the IC50 achieved at pM levels. […] In addition, in the membrane bound state the peptide remains active for at least 12 hours. Therefore, it is a very effective C5aR inhibitor.

The test system of the next series is C5a anaphylatoxin. The series is described as follows: binding of AHB peptide to antisense peptides derived from C5a. Particulars: C5a amino acids 37-43 and 61-74.
The next series deals with T3, C5aR (Homo sapiens, UniProt P21730).
T3 construct: endogenous in cells; host or cells: 'C5aR bearing cells', not specified
T3 sequence (P21730 1-350): T2 sequence (P21730 1-350)
The experiment in a line: persistence of activity of erythrocyte membrane bound peptide. Particulars: erythrocyte membrane bound state. As for the experimental part:
The activity in vivo, in rat and pig models, is shown in the examples below. Further, it has been shown that the peptide can be delivered in vivo very safely, even at very high concentration. […] In addition, in the membrane bound state, the peptide remains active for at least 12 hours. Therefore, it is a very effective C5aR inhibitor.
as §1

Ends that are not written are not given here.

Take QRSYTVAIA [QRS1008, QRSYTVAIA]: the “Hemolysis inhibition (% of maximum)” value with guinea pig complement was >40-60%.
Same read-out and setting: as for “SDKKGICVADPFEVT [SDK1606, SDKKGICVADPFEVT]”, the figure is greater than 80%; as for ESASLRSEETKV [ESA1331, ESASLRSEETKV], >20-40%; as for “DDLKQLANGVDRYI [DDL1619, DDLKQLANGVDRYI]”, greater than 80%.
Still for that read-out and setting: as for LSRKVLLDGV [LSR1099, LSRKVLLDGV], the figure is >20-40%; as for LHLSVRTLELRP [LHL1431, LHLSVRTLELRP], >40-60%; as for GQWKIRAYYENS [GQW1513, GQWKIRAYYENS], no more than 20%.
In the case of “LNLCALSVDRYRAVASWSRVI (Endothelin A receptor targeting inhibitor LNL2390) [ETR-P1/fl]”, the “measured endothelin level after injected ET-1” value with endothelin receptor (dogs, pretreatment 100 ug/kg) is listed as “become normal”. The “time to removal of cardiovascular effects of injected ET-1” value with endothelin receptor (dogs, pretreatment 100 ug/kg, iv ET-1) is recorded as no more than 10 min. Besides, the “decrease of normal baseline level of ET peptide in plasma” value in the series with endothelin receptor (dogs, transient) was 30-50%. Further, the “increase of ET-1 binding capacity of the endothelin receptor” value with endothelin receptor (receptor frozen in inactive conformation) was 4 times.
Regarding “LRTWSRRATRSTKTLKVV (Complement factor 5a receptor targeting inhibitor LRT2463) [PR226]”, the “biphasic activity on C5a receptor” value with C5a receptor is “inhibitor at high concentration and activator as low concentration”.
With QALPYSTVGNSNL [QAL1363, QALPYSTVGNSNL], in the series on guinea pig complement, the “Hemolysis inhibition (% of maximum)” value is on record as >40-60%.
Regarding “DYGHYDDKDTLDLNTPVD (Complement factor 5a receptor targeting inhibitor DYG2094) [PR10]”, the “inhibition of C5a receptor activity / C5a-induced Ca++ influx” value with C5a receptor is listed as “did not inhibit the receptor activity”. For the same substance, in the series on C5a anaphylatoxin, the “binding to antisense peptides derived from C5a anaphylatoxin” value was “bound to two of its corresponding antisense peptides”.
As for APNHLLEVRV [AP1314, APNHLLEVRV], the “Hemolysis inhibition (% of maximum)” value with guinea pig complement is greater than 80%.
Take (LRTWSRRATRSTKTLKVV)8K4K2KV [PR226MAP]: the “concentration of complete inhibition of C5a triggered Ca influx” value at C5a receptor (FIG. 2) was determined as 200 pM. In addition, the “concentration level at which C5a triggered Ca influx is inhibited” value on C5a receptor (serial dilution) is recorded as “femtomolar concentration levels”. Moreover, the IC50 at C5a receptor (serial dilution, FIG. 2, read-out: IC50 of C5a triggered Ca influx) worked out at 1 pM. Further, at C5aR, the “time the peptide remains active” value is “at least 12 hours”.
In the case of LRLPYVVREQL [LRL1384, LRLPYVVREQL], in the series with guinea pig complement, the “Hemolysis inhibition (% of maximum)” value is listed as no more than 20%.
In the case of “QKKIEEIAAKYKHS (PL3-AHB peptide derived from C5a anaphylatoxin)”, in the series with C5a receptor, the “inhibition of C5a receptor activity / C5a-induced Ca++ influx” value is on record as “not able to inhibit”.
On to “KYKHSVVKKSDGA (PL12-AHB peptide derived from C5a anaphylatoxin)”, for which the “inhibition of C5a receptor activity / C5a-induced Ca++ influx” value in the series with C5a receptor was “not able to inhibit”.
On the same count and under the same terms, under “LRANISHKDMQLGR (PL61-AHB peptide derived from C5a anaphylatoxin)” stands “not able to inhibit”.
Consider NIFLKDSITTWE [NIF1464, NIFLKDSITTWE], for which the “Hemolysis inhibition (% of maximum)” value with guinea pig complement is >40-60%.
For the substance “LNCQRYYGGGGYST [LNC1538, LNCQRYYGGGGYST]”, in the series on guinea pig complement, the “Hemolysis inhibition (% of maximum)” value is recorded as >20-40%.
Still for that read-out and setting: as for IAVHYLDETEQW [IAV1501, IAVHYLDETEQW], the figure is no more than 20%; as for TAYVVKVFSLAVN [TAY1409, TAYVVKVFSLAVN], no more than 20%.
On the same count and under the same terms, as for “VQAERSGIPIVTSPYQI [VQA1857, VQAERSGIPIVTSPYQI]”, the figure is greater than 80%; as for ERLGREGVQ [ERL1041, ERLGREGVQ], >20-40%.
With “HWPFGGAACSILPSLI (Complement factor 5a receptor targeting inhibitor HWP1667) [PR101]”, in the series with C5a receptor, the “inhibition of C5a receptor activity / C5a-induced Ca++ influx” value is listed as “did not affect the C5a-induced Ca^++ influx”.
As to SDAGLTFTSS [SDA984, SDAGLTFTSS], the “Hemolysis inhibition (% of maximum)” value with guinea pig complement is greater than 80%.
LTAYVVKVFSLA [LTA1309, LTAYVVKVFSLA]: in the series with guinea pig complement, the “Hemolysis inhibition (% of maximum)” value is given as greater than 80%.
Regarding “RAARISLGPRSIKAFTE (PL37-AHB peptide derived from C5a anaphylatoxin)”, the “inhibition of C5a receptor activity / C5a-induced Ca++ influx” value with C5a receptor was “not able to inhibit”.
On to KRPQDAKNT [KRP1057, KRPQDAKNT], for which, in the series on guinea pig complement, the “Hemolysis inhibition (% of maximum)” value is listed as >20-40%.
